Tests used:
velvetleaf [1] = test: Test Example 4: herbicidal effect by soil treatment (Table 19, symbol M); format: in vivo, velvetleaf (Abutilon theophrasti); settings: amount of applied herbicide 320 g/ha
Method in brief: (§1)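 Scoring uses the grading scale of an earlier test, three weeks post-application. Treatment consists of spraying a diluted emulsion formulation across the surface of sterilized diluvial soil in which seeds are buried near 1.5 cm deep; boxes are kept in a greenhouse between 25° C. and 30° C.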

barnyard grass [2] = test: Test Example 3: herbicidal effect by foliage application, Wagner pot (Table 18, symbol H); format: in vivo, barnyard grass (Echinochloa crus-galli); settings: 320 g/ha
Method in brief: (§2)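 Plants were sown in alluvial soil held under 0.1–0.5 cm standing water and grown 14 days in a greenhouse at 25–30 °C. An emulsifiable formulation, water-diluted to the set dose, was then sprayed onto the foliage, and effects were scored three weeks later using previously defined criteria.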

barnyard grass [3] = test: Test Example 5: herbicidal effect by foliage application, plastic box (Table 20, symbol H); format: in vivo, barnyard grass (Echinochloa crus-galli); settings: foliage application, 320 g/ha, three weeks after application
Method in brief: (§3)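 Post-emergence foliar test in sterilized diluvial soil. Compound applied as water-diluted emulsion at a predetermined rate to 14-day-old plants; evaluation at three weeks.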

blackgrass [4] = test: Test Example 5: herbicidal effect by foliage application, plastic box (Table 20, symbol J); format: in vivo, blackgrass (Alopecurus myosuroides); settings: foliage application, 320 g/ha, three weeks after application
Method in brief: as §3

Italian ryegrass [5] = test: Test Example 4: herbicidal effect by soil treatment (Table 19, symbol K); format: in vivo, Italian ryegrass (Lolium multiflorum); settings: amount of applied herbicide 320 g/ha
Method in brief: as §1

wild oat [6] = test: Test Example 4: herbicidal effect by soil treatment (Table 19, symbol I); format: in vivo, wild oat (Avena fatua); settings: amount of applied herbicide 320 g/ha
Method in brief: as §1

oval-leafed pondweed = test: Test Example 1: herbicidal activity, application before weed generation under submerged conditions (Table 16, symbol C); format: in vivo, oval-leafed pondweed (Monochoria vaginalis); settings: amount of applied herbicide 320 g/ha
Method in brief: (§4)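 Submerged Wagner pots (alluvial soil, 4 cm water) sown with weed seeds and planted with 2.5-leaf rice seedlings; emulsifiable concentrate diluted in water applied to water surface on sowing day. Held in greenhouse at 25-30 °C; injury scored 0-5 by herbicidal rate after three weeks.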

lambsquarters [7] = test: Test Example 4: herbicidal effect by soil treatment (Table 19, symbol O); format: in vivo, lambsquarters (Chenopodium album); settings: amount of applied herbicide 320 g/ha
Method in brief: as §1

lambsquarters [8] = test: Test Example 5: herbicidal effect by foliage application, plastic box (Table 20, symbol O); format: in vivo, lambsquarters (Chenopodium album); settings: foliage application, 320 g/ha, three weeks after application
Method in brief: as §3

green foxtail [9] = test: Test Example 5: herbicidal effect by foliage application, plastic box (Table 20, symbol G); format: in vivo, green foxtail (Setaria viridis); settings: foliage application, 320 g/ha, three weeks after application
Method in brief: as §3

chickweed [10] = test: Test Example 5: herbicidal effect by foliage application, plastic box (Table 20, symbol P); format: in vivo, common chickweed (Stellaria media); settings: foliage application, 320 g/ha, three weeks after application
Method in brief: as §3

rice flat sedge = test: Test Example 3: herbicidal effect by foliage application, Wagner pot (Table 18, symbol E); format: in vivo, rice flat sedge (Cyperus iria); settings: 320 g/ha
Method in brief: as §2

chickweed [11] = test: Test Example 4: herbicidal effect by soil treatment (Table 19, symbol P); format: in vivo, common chickweed (Stellaria media); settings: amount of applied herbicide 320 g/ha
Method in brief: as §1

late watergrass = test: Test Example 1: herbicidal activity, application before weed generation under submerged conditions (Table 16, symbol A); format: in vivo, late watergrass (Echinochloa oryzicola); settings: amount of applied herbicide 320 g/ha
Method in brief: as §4

green foxtail [12] = test: Test Example 4: herbicidal effect by soil treatment (Table 19, symbol G); format: in vivo, green foxtail (Setaria viridis); settings: amount of applied herbicide 320 g/ha
Method in brief: as §1

redroot pigweed [13] = test: Test Example 5: herbicidal effect by foliage application, plastic box (Table 20, symbol N); format: in vivo, redroot pigweed (Amaranthus retroflexus); settings: foliage application, 320 g/ha, three weeks after application
Method in brief: as §3

barnyard grass [14] = test: Test Example 4: herbicidal effect by soil treatment (Table 19, symbol H); format: in vivo, barnyard grass (Echinochloa crus-galli); settings: amount of applied herbicide 320 g/ha
Method in brief: as §1

persian speedwell [15] = test: Test Example 4: herbicidal effect by soil treatment (Table 19, symbol R); format: in vivo, Persian speedwell (Veronica persica); settings: amount of applied herbicide 320 g/ha
Method in brief: as §1

windgrass [16] = test: Test Example 4: herbicidal effect by soil treatment (Table 19, symbol L); format: in vivo, windgrass (Apera spica-venti); settings: amount of applied herbicide 320 g/ha
Method in brief: as §1

southern crabgrass [17] = test: Test Example 4: herbicidal effect by soil treatment (Table 19, symbol F); format: in vivo, southern crabgrass (Digitaria ciliaris); settings: amount of applied herbicide 320 g/ha
Method in brief: as §1

windgrass [18] = test: Test Example 5: herbicidal effect by foliage application, plastic box (Table 20, symbol L); format: in vivo, windgrass (Apera spica-venti); settings: foliage application, 320 g/ha, three weeks after application
Method in brief: as §3

blackgrass [19] = test: Test Example 4: herbicidal effect by soil treatment (Table 19, symbol J); format: in vivo, blackgrass (Alopecurus myosuroides); settings: amount of applied herbicide 320 g/ha
Method in brief: as §1

southern crabgrass [20] = test: Test Example 5: herbicidal effect by foliage application, plastic box (Table 20, symbol F); format: in vivo, southern crabgrass (Digitaria ciliaris); settings: foliage application, 320 g/ha, three weeks after application
Method in brief: as §3

Japanese bulrush = test: Test Example 1: herbicidal activity, application before weed generation under submerged conditions (Table 16, symbol B); format: in vivo, Japanese bulrush (Schoenoplectus juncoides); settings: amount of applied herbicide 320 g/ha
Method in brief: as §4

Chinese sprangletop = test: Test Example 3: herbicidal effect by foliage application, Wagner pot (Table 18, symbol D); format: in vivo, chinese sprangletop (Leptochloa chinensis); settings: 320 g/ha
Method in brief: as §2

persian speedwell [21] = test: Test Example 5: herbicidal effect by foliage application, plastic box (Table 20, symbol R); format: in vivo, Persian speedwell (Veronica persica); settings: foliage application, 320 g/ha, three weeks after application
Method in brief: as §3

false cleavers = test: Test Example 5: herbicidal effect by foliage application, plastic box (Table 20, symbol Q); format: in vivo, false cleavers (Galium spurium); settings: foliage application, 320 g/ha, three weeks after application
Method in brief: as §3

velvetleaf [22] = test: Test Example 5: herbicidal effect by foliage application, plastic box (Table 20, symbol M); format: in vivo, velvetleaf (Abutilon theophrasti); settings: foliage application, 320 g/ha, three weeks after application
Method in brief: as §3

wild oat [23] = test: Test Example 5: herbicidal effect by foliage application, plastic box (Table 20, symbol I); format: in vivo, wild oat (Avena fatua); settings: foliage application, 320 g/ha, three weeks after application
Method in brief: as §3

redroot pigweed [24] = test: Test Example 4: herbicidal effect by soil treatment (Table 19, symbol N); format: in vivo, redroot pigweed (Amaranthus retroflexus); settings: amount of applied herbicide 320 g/ha
Method in brief: as §1

Italian ryegrass [25] = test: Test Example 5: herbicidal effect by foliage application, plastic box (Table 20, symbol K); format: in vivo, Italian ryegrass (Lolium multiflorum); settings: foliage application, 320 g/ha, three weeks after application
Method in brief: as §3

CCOc1ccccc1-c1sc2cc(OCc3ccccc3)ccc2c1-c1c(O)c(C)nn(C)c1=O [3-119]
M: velvetleaf, herbicidal effect grade (velvetleaf [1]): 0 (Herbicidal rate of 5% or less (almost no effect)) | herbicidal effect on barnyard grass (H) (barnyard grass [2]): 4 (Herbicidal rate of 70% or more and less than 90%) | H: barnyard grass, herbicidal effect grade (barnyard grass [3]): 3 (Herbicidal rate of 40% or more and less than 70%) | J: blackgrass, herbicidal effect grade (blackgrass [4]): 0 (Herbicidal rate of 5% or less (almost no effect)) | K: Italian ryegrass, herbicidal effect grade (Italian ryegrass [5]): 0 (Herbicidal rate of 5% or less (almost no effect)) | I: wild oat, herbicidal effect grade (wild oat [6]): 0 (Herbicidal rate of 5% or less (almost no effect)) | Herbicidal effect, C: oval-leafed pondweed (oval-leafed pondweed): 3 (Herbicidal rate of 40% or more and less than 70%) | O: lambsquarters, herbicidal effect grade (lambsquarters [7]): 3 (Herbicidal rate of 40% or more and less than 70%) | O: lambsquarters, herbicidal effect grade (lambsquarters [8]): 5 (Herbicidal rate of 90% or more (almost completely withered)) | G: green foxtail, herbicidal effect grade (green foxtail [9]): 5 (Herbicidal rate of 90% or more (almost completely withered)) | P: chickweed, herbicidal effect grade (chickweed [10]): 5 (Herbicidal rate of 90% or more (almost completely withered)) | herbicidal effect on rice flat sedge (E) (rice flat sedge): 5 (Herbicidal rate of 90% or more (almost completely withered)) | P: chickweed, herbicidal effect grade (chickweed [11]): 0 (Herbicidal rate of 5% or less (almost no effect)) | Herbicidal effect, A: late watergrass (late watergrass): 3 (Herbicidal rate of 40% or more and less than 70%) | G: green foxtail, herbicidal effect grade (green foxtail [12]): 3 (Herbicidal rate of 40% or more and less than 70%) | N: redroot pigweed, herbicidal effect grade (redroot pigweed [13]): 5 (Herbicidal rate of 90% or more (almost completely withered)) | H: barnyard grass, herbicidal effect grade (barnyard grass [14]): 0 (Herbicidal rate of 5% or less (almost no effect)) | R: persian speedwell, herbicidal effect grade (persian speedwell [15]): 5 (Herbicidal rate of 90% or more (almost completely withered)) | L: windgrass, herbicidal effect grade (windgrass [16]): 0 (Herbicidal rate of 5% or less (almost no effect)) | F: southern crabgrass, herbicidal effect grade (southern crabgrass [17]): 4 (Herbicidal rate of 70% or more and less than 90%) | L: windgrass, herbicidal effect grade (windgrass [18]): 4 (Herbicidal rate of 70% or more and less than 90%) | J: blackgrass, herbicidal effect grade (blackgrass [19]): 0 (Herbicidal rate of 5% or less (almost no effect)) | F: southern crabgrass, herbicidal effect grade (southern crabgrass [20]): 5 (Herbicidal rate of 90% or more (almost completely withered)) | Herbicidal effect, B: Japanese bulrush (Japanese bulrush): 3 (Herbicidal rate of 40% or more and less than 70%) | herbicidal effect on Chinese sprangletop (D) (Chinese sprangletop): 4 (Herbicidal rate of 70% or more and less than 90%) | R: persian speedwell, herbicidal effect grade (persian speedwell [21]): 5 (Herbicidal rate of 90% or more (almost completely withered)) | Q: false cleavers, herbicidal effect grade (false cleavers): 5 (Herbicidal rate of 90% or more (almost completely withered)) | M: velvetleaf, herbicidal effect grade (velvetleaf [22]): 4 (Herbicidal rate of 70% or more and less than 90%) | I: wild oat, herbicidal effect grade (wild oat [23]): 1 (Herbicidal rate of 5% or more and less than 20%) | N: redroot pigweed, herbicidal effect grade (redroot pigweed [24]): 3 (Herbicidal rate of 40% or more and less than 70%) | K: Italian ryegrass, herbicidal effect grade (Italian ryegrass [25]): 1 (Herbicidal rate of 5% or more and less than 20%)

— US20230085307A1, “PYRIDAZINONE COMPOUND AND HERBICIDE” (NISSAN CHEMICAL CORPORATION, priority 2019, published 2023)
